Data as given in article PMC4316792, “The dehydrogenase region of the NADPH oxidase component Nox2 acts as a protein disulfide isomerase (PDI) resembling PDIA3 with a role in the binding of the activator protein p67^phox” (Frontiers in Chemistry, 2015).
“Also recorded” adds a separate entry of the source.

Tests used:
[1] = biological target: NADPH oxidase (macrophage membrane liposomes, cytochrome b558) (Cavia porcellus, UniProt H0UXC6); format: biochemical, guinea pig
PDIA3 = test system: PDIA3; design: method as in Jasuja et al., [2012]; conditions: ref Jasuja et al., [2012]; cited from earlier work
p67^phox(1–212) = assay: Effect of H2O2 on binding of p67phox(1–212) to Nox2 peptide 24; conditions: p67^phox(1–212) 1.5 μM, H2O2 10 mM required (0.1, 1, 10 mM tested), 2 h at 4°C; three experiments (Figure 2C)
Experimental: This assay was used to assess the binding of p67^phox, in solution, to surface-attached synthetic Nox2 peptides. The procedure is a modified version of that described before (Morozov et al., [1998]; Dahan et al., [2002]). A brief description of the procedure is presented here. Synthetic Nox2 peptides, with a biotin tag at either the N- or C-terminus, were diluted to a concentration of 1 μM in PBS supplemented with 1% casein. 200 μl/well volumes were added to streptavidin-coated 96 well plates (BioBind Assembly, streptavidin-coated, Cat. No. 95029263, Thermo Fisher Scientific) and the plates incubated for 1 h at room temperature, the well contents being mixed on an orbital shaker. […] Bound peroxidase was quantified as described for the protein—protein binding assay.
Figure 2 Treatment of p67^phox with N-ethylmaleimide (NEM), diamide, or H2O2 reverses the enhanced binding to Nox2 peptides containing an intramolecular disulfide bond. p67^phox(1–526) (1.5 μM) was incubated with NEM (0.1 mM) (A) or diamide (5 mM) (B), for 1 h at room temperature. p67^phox(1–212) (1.5 μM) was exposed to H2O2 (0.1, 1, or 10 mM) for 2 h at 4°C (C). […] The binding of treated and untreated p67^phox, in solution, to surface-attached Nox2 peptide 24 (357–371), with an N-terminal biotin tag, was measured. […]

NADPH oxidase = test system: NADPH oxidase; design: method as in 8 sources, one per row (each row's own in cited_ref): ref Shpungin et al., [1989] ||| ref Bellavite et al., [1983]; Gabig and Lefker, [1984] ||| ref Pick et al., [1987] ||| ref Le Cabec and Maridonneau-Parini, [1995] ||| ref Nishida et al., [2005] ||| ...; conditions: cited from earlier work
PDIA1 = conditions: ref Xu et al., [2012]; cited from earlier work
Excerpt: Isomerization by PDI also requires the b′ domain (Ellgaard and Ruddock, [2005]) and, thus, an interact ...

[2] = test system: NADPH oxidase in intact phagocytes / neutrophils; design: method as in 3 sources, one per row (each row's own in cited_ref): ref Cohen and Chovaniec, [1978]; Yamashita et al., [1984] ||| ref Le Cabec and Maridonneau-Parini, [1995] ||| ref Tsunawaki et al., [2004]; conditions: cited from earlier work
Nox4 = test system: Nox4; design: method as in Serrander et al., [2007]; conditions: ref Serrander et al., [2007]; cited from earlier work
PDI = test system: PDI; design: method as in 2 sources, one per row (each row's own in cited_ref): ref Gallina et al., [2002]; Raturi et al., [2005] ||| ref Dickerhof et al., [2011]; conditions: ref Dickerhof et al., [2011]; cited from earlier work

## C[C@@H]1O[C@@H](OC[C@H]2O[C@@H](Oc3c(-c4ccc(O)c(O)c4)oc4cc(O)cc(O)c4c3=O)[C@H](O)[C@@H](O)[C@@H]2O)[C@H](O)[C@H](O)[C@H]1O [rutin]
[1]
  inhibition of oxidase activation, in words: Lack of an inhibitory effect
PDIA3
  inhibitory effect on PDIA3: lack an inhibitory effect

## OO [H2O2]
p67^phox(1–212)
  effect of H2O2 treatment of p67phox on binding to peptide 24 in the disulfide form: markedly reduced
NADPH oxidase; without effect on the assembled complex, ref Ostuni et al., [2010]
  effect of exposure of phagocyte membranes on oxidase assembly: inhibits oxidase assembly

## PACMA 31
[1]
  inhibition of oxidase activation, in words: Lack of an inhibitory effect
PDIA1
  specificity for PDIA1: exquisite specificity

## CN1C(=O)[C@]23CC4=CC=C[C@H](O)[C@H]4N2C(=O)[C@@]1(CO)SS3 [gliotoxin]
[1]
  IC50, NADPH oxidase activation: could not be determined
  inhibition of oxidase activation, in words: poor inhibitor
[2]
  inhibition of oxidase activation in neutrophils: inhibit oxidase activation
NADPH oxidase
  inhibition of oxidase activation in vitro: marked inhibitory effect; also recorded: inhibit oxidase activation
Nox4
  effect on Nox4: did not affect

## bacitracin A
PDI
  inhibitory potency on PDI: low inhibitory potency
